Laboratory results reported in ChEMBL document CHEMBL1201862, “PubChem BioAssay data set” (2004).
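Growth conditions: 96-well plates. Treatment: test compound, 48 hours, 5 concentrations. Analysis: linear interpolation between bracketing concentrations; unreached endpoints set to highest concentration. GI50 = concentration required for 50% inhibition of growth.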 Calls of active or inactive are those of the source. Cut-off read from the data, not from the text of the source: active = GI50 up to about 1.1 µM and inactive = higher.

Experiments:
Test in all cases: NCI anticancer screen, dose series, 48 h
[1] = system: A498
[2] = system: A549
[3] = system: CCRF-CEM
[4] = system: HCT-116
[5] = system: HCT-15
[6] = system: HOP-62
[7] = system: MCF7
[8] = system: MDA-MB-435
[9] = system: MOLT-4
[10] = system: Malme-3M
[11] = system: NCI-H522
[12] = system: PC-3
[13] = system: RXF 393
[14] = system: SF-295
[15] = system: SK-MEL-2
[16] = system: SNB-75
[17] = system: SR
[18] = system: TK-10
[19] = system: U-251
[20] = system: UACC-62

Row | SMILES | GI50 [1] | GI50 [2] | GI50 [3] | GI50 [4] | GI50 [5] | GI50 [6] | GI50 [7] | GI50 [8] | GI50 [9] | GI50 [10] | GI50 [11] | GI50 [12] | GI50 [13] | GI50 [14] | GI50 [15] | GI50 [16] | GI50 [17] | GI50 [18] | GI50 [19] | GI50 [20]
1 | COCCOCCOCCOc1ccc(C(C#N)N(CCc2ccccc2)C(=O)c2cc(C(=O)N(CCc3ccccc3)C(C#N)c3ccc(OCCOCCOCCOC)cc3)cc(C(=O)N(CCc3ccccc3)C(C#N)c3ccc(OCCOCCOCCOC)cc3)c2)cc1 (stereo not given) | > 100 µM (inactive) | > 100 µM (inactive) | > 100 µM (inactive) | > 100 µM (inactive) | > 100 µM | > 100 µM (inactive) | > 100 µM (inactive) | > 100 µM (inactive) | > 100 µM (inactive) | > 100 µM (inactive) | > 100 µM (inactive) | > 100 µM (inactive) | > 100 µM (inactive) | > 100 µM (inactive) | > 100 µM (inactive) | > 100 µM (inactive) | > 100 µM (inactive) | > 100 µM (inactive) | > 100 µM (inactive) | > 100 µM (inactive)
2 | CC(C)(C)OC(=O)N1CCCC1C(=O)NC(c1ccccc1)c1ccccc1 (stereo not given) | > 100 µM (inactive) | > 100 µM (inactive) | > 100 µM (inactive) | > 100 µM (inactive) | > 100 µM | > 100 µM (inactive) | > 100 µM (inactive) | > 100 µM (inactive) | > 100 µM (inactive) | > 100 µM (inactive) | > 100 µM (inactive) | > 100 µM (inactive) | > 100 µM (inactive) | > 100 µM (inactive) | > 100 µM (inactive) | > 100 µM (inactive) | > 100 µM (inactive) | > 100 µM (inactive) | > 100 µM (inactive) | > 100 µM (inactive)
3 | CC1CCCN1CCCOC(=O)c1ccc(OC2C=CCCC2)cc1 (stereo not given) | 67.1 µM (inactive) | 42.1 µM (inactive) | 30.3 µM (inactive) | 17.2 µM (inactive) | 23.3 µM | 20.1 µM (inactive) | 25.1 µM (inactive) | > 100 µM (inactive) | 25.1 µM (inactive) | 18.9 µM (inactive) | 20.9 µM (inactive) | 22.4 µM (inactive) | 26.7 µM (inactive) | 16.5 µM (inactive) | > 100 µM (inactive) | 7.74 µM (inactive) | 28.1 µM (inactive) | 36.9 µM (inactive) | 37.6 µM (inactive) | > 100 µM (inactive)
4 | CCN1CCN(c2nc3ccccc3nc2C(=O)c2ccc(OC)c(OC)c2)CC1 | 27.7 µM (inactive) | 13.6 µM (inactive) | 10 µM (inactive) | 5.31 µM (inactive) | 13.7 µM | 21.4 µM (inactive) | 18.2 µM (inactive) | 25.4 µM (inactive) | 5.16 µM (inactive) | 16.4 µM (inactive) | 12 µM (inactive) | 32.7 µM (inactive) | 12.2 µM (inactive) | 11.9 µM (inactive) | 47.8 µM (inactive) | 12.9 µM (inactive) | 7.06 µM (inactive) | 22.4 µM (inactive) | 14.8 µM (inactive) | > 100 µM (inactive)
5 | Cc1ccc(S(=O)(=O)C2=c3ncccc3=C3C(=O)c4ccccc4C(=O)C32)cc1 (stereo not given) | 5.81 µM (inactive) | > 100 µM (inactive) | > 95.1 µM (inactive) | 71.6 µM (inactive) | > 10 µM | 4.71 µM (inactive) | > 71.9 µM (inactive) | > 100 µM (inactive) | > 100 µM (inactive) | 53.7 µM (inactive) | 4.38 µM (inactive) | 61.4 µM (inactive) | 16 µM (inactive) | 43.1 µM (inactive) | 3.13 µM (inactive) | 52.6 µM (inactive) | > 100 µM (inactive) | 8.65 µM (inactive) | 57.7 µM (inactive) | 23 µM (inactive)
